The results in this text go back to patent US7135481B2, “Naphthalimide compositions and uses thereof” (ChemGenex Pharmaceuticals, Inc., priority 2000, dated 2006).

Data set [1] concerns RIF-1 murine fibrosarcoma. The experiment in a line: Example 2: RIF-1 tumor growth delay (TVQT), amonafide alone and with other chemotherapeutics. The conditions noted are these: for TVQT: single agent, mean ± SE.
Protocol: Animals: Female C3H mice (Charles River Laboratories, Holister, Calif.), approximately 3 months old, were used for the study. The average body weight was approximately 25 g. Animals were maintained in isolator cages on a 12-hour light-and-dark cycle. Food and water were available ad libitum.
Tumors: The RIF-1 murine fibrosarcoma cell line was maintained in in vitro culture (Waymouth medium supplemented with 20% fetal bovine serum) at 37 C. in a humidified 5% CO2 incubator. Log-phase RIF-1 cells were trypsinized and harvested from cell culture flasks to yield a concentration of 4×10^6 cells/mL, then injected intradermally in a volume of 50 μL (equivalent to 2×10^5 cells per injection) into both flanks of each mouse. Nine days later, when tumors reached approximately 100 mm^3 in size, the animals were randomized to different treatment groups.
Four to five animals were assigned to each treatment group. The intrperitoneal injection volume was 100 μL. The oral administration volume was 100 μL. Combination treatments using two test agents were administered as two separate injections, with the second one following the first either immediately or after 30 minutes.
Tumor volume (cubic millimeters, mm^3) was calculated according to the formula: V=π/6×D1×D2×D3 in which D1–3 are perpendicular diameters measured in millimeters (mm).
Tumor volume quadrupling time (TVQT), defined as the time required for a tumor to grow to four times (4×) its initial volume (at the time of treatment), was used as a study endpoint. The TVQT was determined for each treatment group and expressed in days as the mean±standard error (SE).
Data set [2] has as its system murine fibrosarcomas (RIF-1 cells). The experiment in a line: Example 3: RIF-1 tumor growth delay (TGD), amonafide with camptothecin, genistein or rosmarinic acid. The format is in vivo, C3H mice. The conditions noted are these: single agent. The method, then:
Transplantable experimental murine fibrosarcomas (2×10^5 RIF-1 cells) were grown intradermally in the flanks of 3 month old female C3H mice (Charles River, Holister, Calif.). When the tumors reached a volume of −100 mm^3, the mice were randomly assigned to each experimental group (4 mice per group).
Amonafide was manufactured by Penta for ChemGenex and was made to the appropriate concentration in saline. […] The compositions were injected systemically (i.e., intraperitoneally, i.p.), in a volume of 100 μl. For the treatment of groups 3, 5 and 7, amonafide, was injected immediately prior to the injection of camptothecin, genistein or rosmarinic acid. After treatment, the growth of the tumors was monitored three times per week by caliper measurements of three perpendicular diameters of the tumor and calculation of tumor volume from the formula: V=π/6×D1×D2×D3, where D1-3 represents tumor diameters, in mm.
The data is also expressed as the tumor growth delay (TGD) median which is the median days to 4× the tumor volume from the initial treatment day, and as the delay which is the median days to 4× of the treated group minus the median days to 4× of the control group. The T/C ratio is the ratio of days to 4× of the treated tumors over the days to 4× of the untreated control tumors. Increasing values indicate increased antitumor response.
The tumors were followed until they reached 4 times their Day 0 treatment volume or up to 30 days after treatment (tumor growth delay, TGD), whichever came first. The data is also expressed as the ratio of the tumor growth delay of the treated tumor (TGD) over the untreated control group (CTGD). Increasing values of this ratio indicate increased antitumor response.

Data set [3] shares this test system. The experiment in a line: Example 1: tumor growth delay (TVQT) of RIF-1 fibrosarcoma, amonafide with cisplatin. The conditions noted are these: single agent. The format is in vivo, C3H mice. As for the experimental part:
When the tumors reached a volume of approximately 100 mm3, the mice were randomly assigned to each experimental group (4 mice per group).
The chemopotentiator, amonafide, was obtained from NCI and was made to the appropriate concentration in DMSO. […] The compositions were injected systemically (i.e., intraperitoneally, i.p.), in a volume of 100 microliters. For the treatment of group 3, the chemopotentiator, amonafide, was injected 30 minutes prior to the injection of cisplatin. After treatment, the growth of the tumors was monitored three times per week by caliper measurements of three perpendicular diameters of the tumor and calculation of tumor volume from the formula: V=π/6×D1×D2×D3, where D1-3 represents tumor diameters, in mm.
The tumors were followed until they reached a size of four times their day zero treatment volume (TVQT), or up to 30 days after treatment, whichever came first. The data is expressed as the “tumor volume quadrupling time” (TVQT) mean and as the “delay.” Mean TVQT is the mean days required for individual tumors to grow to four times the tumor volume at the initial treatment day. The “delay” is the median of days required for a tumor to grow to four times the mean size of the treated group, minus the median of days required to grow to four times the mean size of the control group. The data is also expressed as the ratio of the tumor volume quadrupling time of the treated tumor over the untreated control group (TVQT/CTVQT). Increasing values of this ratio indicate increased antitumor response.

Data set [4] is described as follows: Example 2: animal deaths after treatment. The format is in vivo, C3H mice. Conditions: formulated in DMSO at 12.5 mg/mL, IP. As for the experimental part:
The average body weight was approximately 25 g. […] Food and water were available ad libitum.
The intrperitoneal injection volume was 100 μL. The oral administration volume was 100 μL.

In the case of `O=c1[nH]cc(F)c(=O)[nH]1` [5-Fluorouracil], the TVQT in data set [1] (15 mg/Kg IP) was found to be 6.7 days; in data set [1] (15 mg/Kg IP, listed as Fluorouracil/Saline), 6.7 ± 0.4 days; in data set [1] (30 mg/Kg IP), 13.6 days; in data set [1] (30 mg/Kg IP, listed as Fluorouracil/Saline), 13.6 ± 1.9 days.

Turning to `CN(C)CCN1C(=O)c2cccc3cc(N)cc(c23)C1=O` [Amonafide, 5-amino-2-[(dimethylamine)ethyl]-1H-benz[de-]isoquinoline-1,3-(2H)-dione], in data set [2] (30 mg/kg i.p.), the “Delay” value is -0.36 days, the “Median (TGD)” value is 7.0 days, the “TGD ± S.E.” value is recorded as 7.0 ± 0.4 days and the TGD/CTGD is reported as 0.9. Also, in data set [3] (50 mg/kg i.p.), the “Delay” value came to 2.94 days, the “Mean TVQT ± S.E.” value worked out at 9.7 ± 0.6 days, the “Median (TVQT)” value is on record as 9.0 days and the TVQT/CTVQT is listed as 1.5. Moreover, the animal deaths result in data set [4] is listed as “Two of four mice died”. In addition, the TVQT in data set [1] (30 mg/Kg IP) is given as 7.3 days. In data set [1] (30 mg/Kg IP, listed as Amonafide-Penta/Saline), this compound had a TVQT of 7.3 ± 0.2 days. The “antitumor activity, summary in words (versus amonafide alone and the individual test agents)” value in data set [1] (intraperitoneal amonafide, alone or in combination) is on record as “had antitumor activity”.

For `CC[C@@]1(O)C(=O)OCc2c1cc1n(c2=O)Cc2cc3ccccc3nc2-1` [Camptothecin], in data set [2] (6 mg/kg i.p.), the “Delay” value was 5.45 days, the “Median (TGD)” value is given as 12.8 days, the “TGD ± S.E.” value was found to be 12.9 ± 0.5 days and the TGD/CTGD amounted to 1.7.

On to `N.N.[Cl][Pt][Cl]` [Cisplatin, cis-diamminedichloroplatinum II], for which, in data set [3] (4 mg/kg i.p.), the “Delay” value was determined as 2.10 days, the “Mean TVQT ± S.E.” value was determined as 8.4 ± 0.3 days, the “Median (TVQT)” value was determined as 8.1 days and the TVQT/CTVQT was found to be 1.3. The compound also came in with a TVQT in data set [1] (4 mg/Kg IP) of 9.2 days. For the same compound, the TVQT in data set [1] (4 mg/Kg IP, listed as Cisplatin/WFI) amounted to 9.2 ± 0.4 days.

As for `COc1cc2c(c(OC)c1OC)-c1ccc(OC)c(=O)cc1[C@@H](NC(C)=O)CC2` [Colchicine, colchicine], the TVQT stood at 6.3 days in data set [1] (10 mg/Kg PO) and 6.3 ± 0.3 days in data set [1] (10 mg/Kg PO, listed as Colchicine/Saline).

Turning to `COc1cc(/C=C/C(=O)CC(=O)/C=C/c2ccc(O)c(OC)c2)ccc1O` [Curcumin], the TVQT in data set [1] (25 mg/Kg IP) was determined as 9.7 days; in data set [1] (25 mg/Kg IP, listed as Curcumin/DMSO), 9.7 ± 1.1 days.

As to `COc1cc([C@@H]2c3cc4c(cc3[C@@H](O[C@@H]3O[C@@H]5CO[C@@H](C)O[C@H]5[C@H](O)[C@H]3O)[C@H]3COC(=O)[C@H]23)OCO4)cc(OC)c1O` [Etoposide], the TVQT in data set [1] (10 mg/Kg IP) came to 8.5 days; in data set [1] (10 mg/Kg IP, listed as Etoposide/Saline), 8.5 ± 0.5 days.

As for `O=c1c(-c2ccc(O)cc2)coc2cc(O)cc(O)c12` [Genistein], in data set [2] (60 mg/kg i.p.), the “Delay” value came out at 0.78 days, the “Median (TGD)” value is given as 8.1 days, the “TGD ± S.E.” value came out at 7.9 ± 0.4 days and the TGD/CTGD was found to be 1.1.

Consider `COC(=O)C[C@](O)(CCCC(C)(C)O)C(=O)O[C@@H]1C(OC)=C[C@]23CCCN2CCc2cc4c(cc2[C@H]13)OCO4` [Homoharringtonine, homoharringtonine], for which the TVQT in data set [1] (4 mg/Kg IP, listed as Homoharringtonine/WFI) was 8.5 ± 0.5 days; in data set [1] (4 mg/Kg IP, listed as homoharringtonie), 8.5 days.

For `CC(=O)O[C@H]1C(=O)[C@@]2(C)[C@H]([C@H](OC(=O)c3ccccc3)[C@]3(O)C[C@H](OC(=O)[C@H](O)[C@@H](NC(=O)c4ccccc4)c4ccccc4)C(C)=C1C3(C)C)[C@]1(OC(C)=O)CO[C@@H]1C[C@@H]2O` [Paclitaxel], the TVQT in data set [1] (10 mg/Kg IP) worked out at 7.9 days; in data set [1] (10 mg/Kg IP, listed as Paclitaxel/Cremaphor EL), 7.9 ± 0.3 days.

Consider `O=C(/C=C/c1ccc(O)c(O)c1)O[C@H](Cc1ccc(O)c(O)c1)C(=O)O` [Rosmarinic Acid], for which, in data set [2] (20 mg/kg i.p.), the “Delay” value turned out to be 0.46 days, the “Median (TGD)” value is listed as 7.8 days, the “TGD ± S.E.” value is 8.4 ± 0.5 days and the TGD/CTGD was found to be 1.1.

For `CC[C@]1(O)C[C@@H]2CN(CCc3c([nH]c4ccccc34)[C@@](C(=O)OC)(c3cc4c(cc3OC)N(C)[C@H]3[C@@](O)(C(=O)OC)[C@H](OC(C)=O)[C@]5(CC)C=CCN6CC[C@]43[C@@H]65)C2)C1` [Vinblastine], the TVQT in data set [1] (2 mg/Kg IP) is listed as 8.6 days; in data set [1] (2 mg/Kg IP, listed as Vinblastine/Saline) it was 8.6 ± 0.4 days.
